Measurements as given in patent US7731960B2, “Antibodies that inhibit transport activity of peptide transporters” (Chugai Seiyaku Kabushiki Kaisha, priority 2003, dated 2010).

Experiments:
Format in all cases: cell-based
[1] = test system: human pancreatic cancer cell line AsPC-1; assay: Cell growth inhibition of AsPC-1, MTS assay after six days of culture
Experimental: FIG. 3 is a graph showing the cell growth inhibitory effect of AT-264 against human pancreatic cancer cell line AsPC-1. The data are shown as an average±S.D. (n=3 to 4).
(§1) AT-264 was dissolved in RPMI1640-10 mM Hepes (hereinafter, abbreviated as ‘the medium’) containing 0.5% ethanol and 0.5% DMSO to prepare 2.5 mM AT-264 solution. Then, this solution was diluted with the medium to prepare 0.625 mM and 0.0625 mM AT-264 solutions.
A 5×10^4 cells/mL solution of human pancreatic cancer cell line AsPC-1 was prepared using a medium containing 50% FBS. This suspension was seeded at 40 μL/well (2×10^3 cells) onto a 96-well plate pre-coated with Collagen type I, and 160 μL of the AT-264 solution was added. This was cultured for six days in a CO2 incubator (on the second day of culture, 100 units/mL penicillin and 0.1 mg/mL streptomycin were added). On the sixth day of culture, the number of viable cells was quantified by MTS assay.

[2] = test system: human pancreatic cancer cell line BxPC-3; assay: Cell growth inhibition of BxPC-3, MTS assay after six days of culture
Experimental: FIG. 5 is a graph showing the cell growth inhibitory effect of AT-264 against human pancreatic cancer cell line BxPC-3. The data are shown as an average±S.D. (n=6).
as §1, with “Hepes with 100 units/mL penicillin and 0.1 mg/mL streptomycin” for “Hepes”, “Furthermore,” for “Then,”
5×10^4 cells/mL solution of BxPC-3 was prepared using the medium containing 50% FBS. This suspension was seeded at 40 μL/well (2×10^3 cells) onto a 96-well plate pre-coated with Collagen type I, and 160 μL of AT-264 solution was added. This was cultured for six days in a CO2 incubator, and on the sixth day of culture, the number of viable cells was quantified by MTS assay.

[3] = biological target: T1, human PepT2 (Homo sapiens, UniProt Q16348); assay: [3H] glycylsarcosine uptake into BaF3/PepT2 cells; details: FIG. 4
T1 construct: expressed in transfected cells; host or cells: murine bone marrow-derived BaF3 cells
T1 sequence (Q16348 1-729): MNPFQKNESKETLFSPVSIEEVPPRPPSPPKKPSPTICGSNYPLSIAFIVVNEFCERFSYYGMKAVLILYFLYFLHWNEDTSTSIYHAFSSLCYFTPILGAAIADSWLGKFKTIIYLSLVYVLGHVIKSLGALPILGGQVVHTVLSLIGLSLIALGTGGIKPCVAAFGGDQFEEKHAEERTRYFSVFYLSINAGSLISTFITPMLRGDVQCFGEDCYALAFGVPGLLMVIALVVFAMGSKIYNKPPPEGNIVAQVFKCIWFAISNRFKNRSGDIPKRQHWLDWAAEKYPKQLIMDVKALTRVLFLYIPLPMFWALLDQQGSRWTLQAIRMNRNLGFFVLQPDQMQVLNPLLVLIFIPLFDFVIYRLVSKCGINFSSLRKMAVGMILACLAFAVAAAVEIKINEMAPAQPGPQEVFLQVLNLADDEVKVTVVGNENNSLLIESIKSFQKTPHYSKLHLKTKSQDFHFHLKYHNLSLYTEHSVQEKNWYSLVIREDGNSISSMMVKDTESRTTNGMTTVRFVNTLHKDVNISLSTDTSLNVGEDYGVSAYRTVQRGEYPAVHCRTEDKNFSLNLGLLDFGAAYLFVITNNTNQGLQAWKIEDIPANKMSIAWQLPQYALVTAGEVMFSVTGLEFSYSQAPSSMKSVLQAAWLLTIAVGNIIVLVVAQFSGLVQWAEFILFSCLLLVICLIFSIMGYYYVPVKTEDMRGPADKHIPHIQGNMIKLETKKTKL
Description: FIG. 4 is a graph showing the PepT2 inhibiting ability of AT-264 in BaF3/PepT2. The data are shown as an average±S.D. (n=3 to 4).
The ability of AT-264 to inhibit PepT2 was examined using a murine bone marrow-derived cell line BaF3 in which human PepT2 is forcedly expressed (hereinafter, abbreviated as BaF3/PepT2).

[4] = biological target: T2, human PepT1 (Homo sapiens, UniProt P46059); assay: [14C] glycylsarcosine uptake into BaF3/PepT1 cells; details: FIG. 2
T2 sequence (P46059 1-708): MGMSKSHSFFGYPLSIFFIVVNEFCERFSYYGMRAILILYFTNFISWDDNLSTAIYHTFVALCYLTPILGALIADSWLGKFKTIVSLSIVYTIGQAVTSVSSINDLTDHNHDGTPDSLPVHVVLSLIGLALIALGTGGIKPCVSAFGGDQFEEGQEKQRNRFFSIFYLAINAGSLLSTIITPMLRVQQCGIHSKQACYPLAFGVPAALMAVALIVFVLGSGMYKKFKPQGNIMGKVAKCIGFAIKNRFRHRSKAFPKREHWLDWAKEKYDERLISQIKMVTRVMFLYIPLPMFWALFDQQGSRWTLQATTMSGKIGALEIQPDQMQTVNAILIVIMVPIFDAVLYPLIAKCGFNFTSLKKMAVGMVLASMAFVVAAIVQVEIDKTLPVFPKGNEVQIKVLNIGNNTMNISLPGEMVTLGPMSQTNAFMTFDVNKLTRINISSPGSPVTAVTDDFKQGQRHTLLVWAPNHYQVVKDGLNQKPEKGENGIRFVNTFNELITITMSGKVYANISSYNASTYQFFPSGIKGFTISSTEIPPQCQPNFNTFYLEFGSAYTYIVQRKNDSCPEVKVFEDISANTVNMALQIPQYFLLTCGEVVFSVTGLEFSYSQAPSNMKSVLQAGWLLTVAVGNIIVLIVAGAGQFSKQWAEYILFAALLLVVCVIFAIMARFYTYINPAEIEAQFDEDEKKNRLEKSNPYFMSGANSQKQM
Description: FIG. 2 is a graph showing the PepT1 inhibiting ability of AT-264 in BaF3 cells.
The ability of AT-264 to inhibit PepT1 was examined by forcedly expressing human PepT1 in mouse bone marrow-derived BaF3 cells (hereinafter abbreviated as BaF3/PepT1).

Which results are given for N=C(N)c1cccc(CC(NS(=O)(=O)NCc2cccc3ccccc23)C(=O)N2CCCCC2C(=O)O)c1 (centres unmarked) [AT-264]?
cell growth inhibition ([1]; AsPC-1, 0.5 mM AT-264, six days, MTS assay): slight; morphological changes under the microscope ([1]; AsPC-1 in the presence of AT-264): not observed; inhibition at 2000 µM ([1]; Homo sapiens, ASPC1, 144 h, AsPC-1, 2 mM AT-264, six days, MTS assay): ~30%; morphological changes under the microscope ([2]; BxPC-3 in the presence of AT-264): not observed; inhibition at 500 µM ([2]; Homo sapiens, 144 h, BxPC-3, 0.5 mM AT-264, six days, MTS assay): ~20%; inhibition at 2000 µM ([2]; Homo sapiens, 144 h, BxPC-3, 2 mM AT-264, six days, MTS assay): ~75%; uptake of [3H] glycylsarcosine into cells [3]: inhibited in a concentration-dependent manner; uptake of [14C] glycylsarcosine into cells [4]: inhibited in a concentration-dependent manner
